According to patent US20230085307A1, “PYRIDAZINONE COMPOUND AND HERBICIDE” (NISSAN CHEMICAL CORPORATION, priority 2019, published 2023):

The compounds below were run on redroot pigweed (assay: Test Example 5: herbicidal effect by foliage application, plastic box (Table 20, symbol N)). Conditions: foliage application, AAH 320 g/ha, three weeks after application.
Type: in vivo, redroot pigweed (Amaranthus retroflexus)
Procedure, shortened: (§1)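 Post-emergence foliar test in sterilized diluvial soil. Compound applied as water-diluted emulsion at a predetermined rate to 14-day-old plants; evaluation at three weeks.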

SMILES | N: redroot pigweed, herbicidal effect
Cc1nn(C)c(=O)c(-c2c(-c3ccc4c(c3)OCCO4)sc3ccccc23)c1OC(=O)SC(C)(C)C [1-092] | 0 (Herbicidal rate of 5% or less (almost no effect))
Cc1nn(C)c(=O)c(-c2c(-c3ccc4c(c3)CCO4)sc3ccccc23)c1O [1-101] | 4 (Herbicidal rate of 70% or more and less than 90%)

What follows are compounds tested on Japanese bulrush (assay: Test Example 1: herbicidal activity, application before weed generation under submerged conditions (Table 16, symbol B)). Conditions: 320 g/ha applied herbicide.
Type: in vivo, Japanese bulrush (Schoenoplectus juncoides)
Procedure, shortened: (§2)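 Alluvial soil was flooded to 4 cm depth, weed seeds were sown mixed and 2.5-leaf rice seedlings were transplanted. On sowing day, the compound's emulsion, diluted in water to a set dose, was applied to the water surface. Plants grew at 25–30 °C and were scored 0–5 after three weeks.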

SMILES | Herbicidal effect on B: Japanese bulrush (grade 0-5)
Cc1nn(C)c(=O)c(-c2c(-c3ccc4c(c3)OCCO4)sc3ccccc23)c1OC(=O)SC(C)(C)C [1-092] | 3 (Herbicidal rate of 40% or more and less than 70%)
Cc1nn(C)c(=O)c(-c2c(-c3ccc4c(c3)CCO4)sc3ccccc23)c1O [1-101] | 5 (Herbicidal rate of 90% or more (almost completely withered))

The compounds below were run on chickweed (assay: Test Example 4: herbicidal effect by soil treatment (Table 19, symbol P)). Conditions: amount of applied herbicide 320 g/ha.
Type: in vivo, common chickweed (Stellaria media)
Procedure, shortened: (§3)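 Scoring uses the grading scale of an earlier test, three weeks post-application. Treatment consists of spraying a diluted emulsion formulation across the surface of sterilized diluvial soil in which seeds are buried near 1.5 cm deep; boxes are kept in a greenhouse between 25° C. and 30° C.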

SMILES | herbicidal effect rating, P: chickweed
Cc1nn(C)c(=O)c(-c2c(-c3ccc4c(c3)OCCO4)sc3ccccc23)c1OC(=O)SC(C)(C)C [1-092] | 0 (Herbicidal rate of 5% or less (almost no effect))
Cc1nn(C)c(=O)c(-c2c(-c3ccc4c(c3)CCO4)sc3ccccc23)c1O [1-101] | 5 (Herbicidal rate of 90% or more (almost completely withered))

The compounds below were run on Chinese sprangletop (assay: Test Example 3: herbicidal effect by foliage application, Wagner pot (Table 18, symbol D)). Conditions: 320 g/ha.
Type: in vivo, chinese sprangletop (Leptochloa chinensis)
Procedure, shortened: (§4)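 Plants were sown in alluvial soil held under 0.1–0.5 cm standing water and grown 14 days in a greenhouse at 25–30 °C. An emulsifiable formulation, water-diluted to the set dose, was then sprayed onto the foliage, and effects were scored three weeks later using previously defined criteria.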

SMILES | herbicidal effect on D (Chinese sprangletop), rating 0-5
Cc1nn(C)c(=O)c(-c2c(-c3ccc4c(c3)OCCO4)sc3ccccc23)c1OC(=O)SC(C)(C)C [1-092] | 1 (Herbicidal rate of 5% or more and less than 20%)
Cc1nn(C)c(=O)c(-c2c(-c3ccc4c(c3)CCO4)sc3ccccc23)c1O [1-101] | 5 (Herbicidal rate of 90% or more (almost completely withered))

Each compound was assayed on southern crabgrass (assay: Test Example 5: herbicidal effect by foliage application, plastic box (Table 20, symbol F)). Conditions: foliage application, AAH 320 g/ha, three weeks after application.
Type: in vivo, southern crabgrass (Digitaria ciliaris)
Procedure, shortened: as §1

SMILES | F: southern crabgrass, herbicidal effect
Cc1nn(C)c(=O)c(-c2c(-c3ccc4c(c3)OCCO4)sc3ccccc23)c1OC(=O)SC(C)(C)C [1-092] | 3 (Herbicidal rate of 40% or more and less than 70%)
Cc1nn(C)c(=O)c(-c2c(-c3ccc4c(c3)CCO4)sc3ccccc23)c1O [1-101] | 5 (Herbicidal rate of 90% or more (almost completely withered))

These compounds were tested on lambsquarters (assay: Test Example 4: herbicidal effect by soil treatment (Table 19, symbol O)). Conditions: amount of applied herbicide 320 g/ha.
Type: in vivo, lambsquarters (Chenopodium album)
Procedure, shortened: as §3

SMILES | herbicidal effect rating, O: lambsquarters
Cc1nn(C)c(=O)c(-c2c(-c3ccc4c(c3)OCCO4)sc3ccccc23)c1OC(=O)SC(C)(C)C [1-092] | 0 (Herbicidal rate of 5% or less (almost no effect))
Cc1nn(C)c(=O)c(-c2c(-c3ccc4c(c3)CCO4)sc3ccccc23)c1O [1-101] | 5 (Herbicidal rate of 90% or more (almost completely withered))

What follows are compounds tested on chickweed (assay: Test Example 5: herbicidal effect by foliage application, plastic box (Table 20, symbol P)). Conditions: foliage application, AAH 320 g/ha, three weeks after application.
Type: in vivo, common chickweed (Stellaria media)
Procedure, shortened: as §1

SMILES | P: chickweed, herbicidal effect
Cc1nn(C)c(=O)c(-c2c(-c3ccc4c(c3)OCCO4)sc3ccccc23)c1OC(=O)SC(C)(C)C [1-092] | 5 (Herbicidal rate of 90% or more (almost completely withered))
Cc1nn(C)c(=O)c(-c2c(-c3ccc4c(c3)CCO4)sc3ccccc23)c1O [1-101] | 5 (Herbicidal rate of 90% or more (almost completely withered))

The compounds below were run on velvetleaf (assay: Test Example 5: herbicidal effect by foliage application, plastic box (Table 20, symbol M)). Conditions: foliage application, AAH 320 g/ha, three weeks after application.
Type: in vivo, velvetleaf (Abutilon theophrasti)
Procedure, shortened: as §1

SMILES | M: velvetleaf, herbicidal effect
Cc1nn(C)c(=O)c(-c2c(-c3ccc4c(c3)OCCO4)sc3ccccc23)c1OC(=O)SC(C)(C)C [1-092] | 5 (Herbicidal rate of 90% or more (almost completely withered))
Cc1nn(C)c(=O)c(-c2c(-c3ccc4c(c3)CCO4)sc3ccccc23)c1O [1-101] | 5 (Herbicidal rate of 90% or more (almost completely withered))

The compounds below were run on blackgrass (assay: Test Example 5: herbicidal effect by foliage application, plastic box (Table 20, symbol J)). Conditions: foliage application, AAH 320 g/ha, three weeks after application.
Type: in vivo, blackgrass (Alopecurus myosuroides)
Procedure, shortened: as §1

SMILES | J: blackgrass, herbicidal effect
Cc1nn(C)c(=O)c(-c2c(-c3ccc4c(c3)OCCO4)sc3ccccc23)c1OC(=O)SC(C)(C)C [1-092] | 0 (Herbicidal rate of 5% or less (almost no effect))
Cc1nn(C)c(=O)c(-c2c(-c3ccc4c(c3)CCO4)sc3ccccc23)c1O [1-101] | 4 (Herbicidal rate of 70% or more and less than 90%)

The compounds below were run on oval-leafed pondweed (assay: Test Example 1: herbicidal activity, application before weed generation under submerged conditions (Table 16, symbol C)). Conditions: 320 g/ha applied herbicide.
Type: in vivo, oval-leafed pondweed (Monochoria vaginalis)
Procedure, shortened: as §2

SMILES | Herbicidal effect on C: oval-leafed pondweed (grade 0-5)
Cc1nn(C)c(=O)c(-c2c(-c3ccc4c(c3)OCCO4)sc3ccccc23)c1OC(=O)SC(C)(C)C [1-092] | 2 (Herbicidal rate of 20% or more and less than 40%)
Cc1nn(C)c(=O)c(-c2c(-c3ccc4c(c3)CCO4)sc3ccccc23)c1O [1-101] | 5 (Herbicidal rate of 90% or more (almost completely withered))

What follows are compounds tested on wild oat (assay: Test Example 5: herbicidal effect by foliage application, plastic box (Table 20, symbol I)). Conditions: foliage application, AAH 320 g/ha, three weeks after application.
Type: in vivo, wild oat (Avena fatua)
Procedure, shortened: as §1

SMILES | I: wild oat, herbicidal effect
Cc1nn(C)c(=O)c(-c2c(-c3ccc4c(c3)OCCO4)sc3ccccc23)c1OC(=O)SC(C)(C)C [1-092] | 0 (Herbicidal rate of 5% or less (almost no effect))
Cc1nn(C)c(=O)c(-c2c(-c3ccc4c(c3)CCO4)sc3ccccc23)c1O [1-101] | 3 (Herbicidal rate of 40% or more and less than 70%)

What follows are compounds tested on persian speedwell (assay: Test Example 4: herbicidal effect by soil treatment (Table 19, symbol R)). Conditions: amount of applied herbicide 320 g/ha.
Type: in vivo, Persian speedwell (Veronica persica)
Procedure, shortened: as §3

SMILES | herbicidal effect rating, R: persian speedwell
Cc1nn(C)c(=O)c(-c2c(-c3ccc4c(c3)OCCO4)sc3ccccc23)c1OC(=O)SC(C)(C)C [1-092] | 4 (Herbicidal rate of 70% or more and less than 90%)
Cc1nn(C)c(=O)c(-c2c(-c3ccc4c(c3)CCO4)sc3ccccc23)c1O [1-101] | 5 (Herbicidal rate of 90% or more (almost completely withered))

What follows are compounds tested on barnyard grass (assay: Test Example 5: herbicidal effect by foliage application, plastic box (Table 20, symbol H)). Conditions: foliage application, AAH 320 g/ha, three weeks after application.
Type: in vivo, barnyard grass (Echinochloa crus-galli)
Procedure, shortened: as §1

SMILES | H: barnyard grass, herbicidal effect
Cc1nn(C)c(=O)c(-c2c(-c3ccc4c(c3)OCCO4)sc3ccccc23)c1OC(=O)SC(C)(C)C [1-092] | 3 (Herbicidal rate of 40% or more and less than 70%)
Cc1nn(C)c(=O)c(-c2c(-c3ccc4c(c3)CCO4)sc3ccccc23)c1O [1-101] | 4 (Herbicidal rate of 70% or more and less than 90%)

The compounds below were run on barnyard grass (assay: Test Example 3: herbicidal effect by foliage application, Wagner pot (Table 18, symbol H)). Conditions: 320 g/ha.
Type: in vivo, barnyard grass (Echinochloa crus-galli)
Procedure, shortened: as §4

SMILES | herbicidal effect on H (barnyard grass), rating 0-5
Cc1nn(C)c(=O)c(-c2c(-c3ccc4c(c3)OCCO4)sc3ccccc23)c1OC(=O)SC(C)(C)C [1-092] | 4 (Herbicidal rate of 70% or more and less than 90%)
Cc1nn(C)c(=O)c(-c2c(-c3ccc4c(c3)CCO4)sc3ccccc23)c1O [1-101] | 5 (Herbicidal rate of 90% or more (almost completely withered))

What follows are compounds tested on late watergrass (assay: Test Example 1: herbicidal activity, application before weed generation under submerged conditions (Table 16, symbol A)). Conditions: 320 g/ha applied herbicide.
Type: in vivo, late watergrass (Echinochloa oryzicola)
Procedure, shortened: as §2

SMILES | Herbicidal effect on A: late watergrass (grade 0-5)
Cc1nn(C)c(=O)c(-c2c(-c3ccc4c(c3)OCCO4)sc3ccccc23)c1OC(=O)SC(C)(C)C [1-092] | 5 (Herbicidal rate of 90% or more (almost completely withered))
Cc1nn(C)c(=O)c(-c2c(-c3ccc4c(c3)CCO4)sc3ccccc23)c1O [1-101] | 4 (Herbicidal rate of 70% or more and less than 90%)

Each compound was assayed on windgrass (assay: Test Example 5: herbicidal effect by foliage application, plastic box (Table 20, symbol L)). Conditions: foliage application, AAH 320 g/ha, three weeks after application.
Type: in vivo, windgrass (Apera spica-venti)
Procedure, shortened: as §1

SMILES | L: windgrass, herbicidal effect
Cc1nn(C)c(=O)c(-c2c(-c3ccc4c(c3)OCCO4)sc3ccccc23)c1OC(=O)SC(C)(C)C [1-092] | 0 (Herbicidal rate of 5% or less (almost no effect))
Cc1nn(C)c(=O)c(-c2c(-c3ccc4c(c3)CCO4)sc3ccccc23)c1O [1-101] | 5 (Herbicidal rate of 90% or more (almost completely withered))

What follows are compounds tested on rice flat sedge (assay: Test Example 3: herbicidal effect by foliage application, Wagner pot (Table 18, symbol E)). Conditions: 320 g/ha.
Type: in vivo, rice flat sedge (Cyperus iria)
Procedure, shortened: as §4

SMILES | herbicidal effect on E (rice flat sedge), rating 0-5
Cc1nn(C)c(=O)c(-c2c(-c3ccc4c(c3)OCCO4)sc3ccccc23)c1OC(=O)SC(C)(C)C [1-092] | 5 (Herbicidal rate of 90% or more (almost completely withered))
Cc1nn(C)c(=O)c(-c2c(-c3ccc4c(c3)CCO4)sc3ccccc23)c1O [1-101] | 5 (Herbicidal rate of 90% or more (almost completely withered))

The compounds below were run on Italian ryegrass (assay: Test Example 4: herbicidal effect by soil treatment (Table 19, symbol K)). Conditions: amount of applied herbicide 320 g/ha.
Type: in vivo, Italian ryegrass (Lolium multiflorum)
Procedure, shortened: as §3

SMILES | herbicidal effect rating, K: Italian ryegrass
Cc1nn(C)c(=O)c(-c2c(-c3ccc4c(c3)OCCO4)sc3ccccc23)c1OC(=O)SC(C)(C)C [1-092] | 0 (Herbicidal rate of 5% or less (almost no effect))
Cc1nn(C)c(=O)c(-c2c(-c3ccc4c(c3)CCO4)sc3ccccc23)c1O [1-101] | 4 (Herbicidal rate of 70% or more and less than 90%)

What follows are compounds tested on windgrass (assay: Test Example 4: herbicidal effect by soil treatment (Table 19, symbol L)). Conditions: amount of applied herbicide 320 g/ha.
Type: in vivo, windgrass (Apera spica-venti)
Procedure, shortened: as §3

SMILES | herbicidal effect rating, L: windgrass
Cc1nn(C)c(=O)c(-c2c(-c3ccc4c(c3)OCCO4)sc3ccccc23)c1OC(=O)SC(C)(C)C [1-092] | 0 (Herbicidal rate of 5% or less (almost no effect))
Cc1nn(C)c(=O)c(-c2c(-c3ccc4c(c3)CCO4)sc3ccccc23)c1O [1-101] | 4 (Herbicidal rate of 70% or more and less than 90%)
